Patent US9138436B2, “Inhibitors of Bruton's tyrosine kinase” (PHARMACYCLICS LLC, priority 2011, dated 2015)

What follows are compounds tested against Btk (Homo sapiens, UniProt Q06187) (assay: Btk in vitro inhibitory activity, acellular kinase assay (TR-FRET)).
Format: biochemical
Protocol: Btk kinase activity is determined using a time-resolved fluorescence resonance energy transfer (TR-FRET) methodology. Measurements are performed in a reaction volume of 50 μL using 96-well assay plates. Kinase enzyme, inhibitor, ATP (at the Km for the kinase), and 1 μM peptide substrate (Biotin-AVLESEEELYSSARQ-NH2) are incubated in a reaction buffer composed of 20 mM Tris, 50 mM NaCl, MgCl2 (5-25 mM depending on the kinase), MnCl2 (0-10 mM), 1 mM DTT, 0.1 mM EDTA, 0.01% bovine serum albumin, 0.005% Tween-20, and 10% DMSO at pH 7.4 for one hour. The reaction is quenched by the addition of 1.2 equivalents of EDTA (relative to divalent cation) in 25 μL of 1× Lance buffer (Perkin-Elmer). Streptavidin-APC (Perkin-Elmer) and Eu-labeled p-Tyr100 antibody (Perkin-Elmer) in 1× Lance buffer are added in a 25 μL volume to give final concentrations of 100 nM and 2.5 nM, respectively, and the mixture is allowed to incubate for one hour. The TR-FRET signal is measured on a multimode plate reader with an excitation wavelength (λEx) of 330 nm and detection wavelengths (λEm) of 615 and 665 nm. Activity is determined by the ratio of the fluorescence at 665 nm to that at 615 nm. For each compound, enzyme activity is measured at various concentrations of compound. Negative control reactions are performed in the absence of inhibitor in replicates of six, and two no-enzyme controls were used to determine baseline fluorescence levels. Inhibition constants, Ki(app), are obtained using the program BatchKi (Kuzmic et al. (2000), Anal. Biochem. 286:45-50). IC50s are obtained according to the equation: IC50={Ki(app)/(1+[ATP]/Km^ATP)}+[E]total/2;
For all kinases, [ATP]=Km^ATP, [Btk]total=0.5 nM and [Lck]total=6 nM.

Chain of Btk (Q06187 whole entry): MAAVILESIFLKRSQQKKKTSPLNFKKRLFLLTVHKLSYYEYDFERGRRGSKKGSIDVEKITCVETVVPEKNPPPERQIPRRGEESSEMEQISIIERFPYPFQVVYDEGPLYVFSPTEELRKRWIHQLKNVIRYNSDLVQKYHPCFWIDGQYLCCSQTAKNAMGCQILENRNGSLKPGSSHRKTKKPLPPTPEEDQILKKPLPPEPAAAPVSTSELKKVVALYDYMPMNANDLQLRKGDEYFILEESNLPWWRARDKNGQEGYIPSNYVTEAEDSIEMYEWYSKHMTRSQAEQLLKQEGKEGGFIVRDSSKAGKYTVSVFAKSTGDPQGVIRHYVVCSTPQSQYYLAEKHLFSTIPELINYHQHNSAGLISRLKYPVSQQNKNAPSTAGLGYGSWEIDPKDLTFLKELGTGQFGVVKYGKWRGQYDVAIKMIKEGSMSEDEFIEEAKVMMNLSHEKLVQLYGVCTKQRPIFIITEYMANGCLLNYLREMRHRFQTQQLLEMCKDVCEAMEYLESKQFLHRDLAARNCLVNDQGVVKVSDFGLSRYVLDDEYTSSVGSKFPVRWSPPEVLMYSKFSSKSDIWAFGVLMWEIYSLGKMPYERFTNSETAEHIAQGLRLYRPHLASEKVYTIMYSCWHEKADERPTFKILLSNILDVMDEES

IC50, < 100 nM:
Nc1ncnc2c1c(-c1ccc(Oc3ccccc3)cc1)nn2[C@@H]1CCN(C(=O)/C=C/CNC2CCOCC2)C1 [Example 1d, (R,E)-1-(3-(4-amino-3-(4-phenoxyphenyl)-1H-pyrazolo[3,4-d]pyrimidin-1-yl)pyrrolidin-1-yl)-4-(tetrahydro-2H-pyran-4-ylamino)but-2-en-1-one]
Nc1ncnc2c1c(-c1ccc(Oc3ccccc3)cc1)nn2[C@@H]1CCCN(C(=O)/C=C/CNC2CCOCC2)C1 [Example 1f, (R,E)-1-(3-(4-amino-3-(4-phenoxyphenyl)-1H-pyrazolo[3,4-d]pyrimidin-1-yl)piperidin-1-yl)-4-(tetrahydro-2H-pyran-4-ylamino)but-2-en-1-one]
CN(C/C=C/C(=O)N1CC[C@@H](n2nc(-c3ccc(Oc4ccccc4)cc3)c3c(N)ncnc32)C1)C1CCOCC1 [Example 1k, (R,E)-1-(3-(4-amino-3-(4-phenoxyphenyl)-1H-pyrazolo[3,4-d]pyrimidin-1-yl)pyrrolidin-1-yl)-4-(methyl(tetrahydro-2H-pyran-4-yl)amino)but-2-en-1-one]
CN(C/C=C/C(=O)N1CCC[C@@H](n2nc(-c3ccc(Oc4ccccc4)cc3)c3c(N)ncnc32)C1)C1CCOCC1 [Example 1q, (R,E)-1-(3-(4-amino-3-(4-phenoxyphenyl)-1H-pyrazolo[3,4-d]pyrimidin-1-yl)piperidin-1-yl)-4-(methyl(tetrahydro-2H-pyran-4-yl)amino)but-2-en-1-one]
CN(C/C=C/C(=O)N1CC[C@@H](n2nc(-c3ccc(Oc4ccccc4)cc3)c3c(N)ncnc32)C1)c1ccccn1 [Example 1r, (R,E)-1-(3-(4-amino-3-(4-phenoxyphenyl)-1H-pyrazolo[3,4-d]pyrimidin-1-yl)pyrrolidin-1-yl)-4-(methyl(pyridin-2-yl)amino)but-2-en-1-one]
Nc1ncnc2c1c(-c1ccc(Oc3ccccc3)cc1)nn2[C@@H]1CCN(C(=O)/C=C/CNc2ccccn2)C1 [Example 1s, (R,E)-1-(3-(4-amino-3-(4-phenoxyphenyl)-1H-pyrazolo[3,4-d]pyrimidin-1-yl)pyrrolidin-1-yl)-4-(pyridin-2-ylamino)but-2-en-1-one]
CN(C/C=C/C(=O)N1CCC[C@@H](n2nc(-c3ccc(Oc4ccccc4)cc3)c3c(N)ncnc32)C1)c1ccccn1 [Example 1t, (R,E)-1-(3-(4-amino-3-(4-phenoxyphenyl)-1H-pyrazolo[3,4-d]pyrimidin-1-yl)piperidin-1-yl)-4-(methyl(pyridin-2-yl)amino)but-2-en-1-one]
Nc1ncnc2c1c(-c1ccc(Oc3ccccc3)cc1)nn2[C@@H]1CCCN(C(=O)/C=C/CNc2ccccn2)C1 [Example 1u, (R,E)-1-(3-(4-amino-3-(4-phenoxyphenyl)-1H-pyrazolo[3,4-d]pyrimidin-1-yl)piperidin-1-yl)-4-(pyridin-2-ylamino)but-2-en-1-one]
Nc1ncnc2c1c(-c1ccc(Oc3ccccc3)cc1)nn2[C@@H]1CCN(C(=O)/C=C/CN(C2CC2)C2CC2)C1 [Example 2a, (R,E)-1-(3-(4-amino-3-(4-phenoxyphenyl)-1H-pyrazolo[3,4-d]pyrimidin-1-yl)pyrrolidin-1-yl)-4-(dicyclopropylamino)but-2-en-1-one]
CN(C/C=C/C(=O)N1CC[C@@H](n2nc(-c3ccc(Oc4ccccc4)cc3)c3c(N)ncnc32)C1)C1CCC1 [Example 2aa, (R,E)-1-(3-(4-amino-3-(4-phenoxyphenyl)-1H-pyrazolo[3,4-d]pyrimidin-1-yl)pyrrolidin-1-yl)-4-(cyclobutyl(methyl)amino)but-2-en-1-one]
Nc1ncnc2c1c(-c1ccc(Oc3ccccc3)cc1)nn2[C@@H]1CCN(C(=O)/C=C/CNC2CCC2)C1 [Example 2ab, (R,E)-1-(3-(4-amino-3-(4-phenoxyphenyl)-1H-pyrazolo[3,4-d]pyrimidin-1-yl)pyrrolidin-1-yl)-4-(cyclobutylamino)but-2-en-1-one]
CN1CCC(N(C)C/C=C/C(=O)N2CC[C@@H](n3nc(-c4ccc(Oc5ccccc5)cc4)c4c(N)ncnc43)C2)CC1 [Example 2ac, (R,E)-1-(3-(4-amino-3-(4-phenoxyphenyl)-1H-pyrazolo[3,4-d]pyrimidin-1-yl)pyrrolidin-1-yl)-4-(methyl(1-methylpiperidin-4-yl)amino)but-2-en-1-one]
CN1CCC(NC/C=C/C(=O)N2CC[C@@H](n3nc(-c4ccc(Oc5ccccc5)cc4)c4c(N)ncnc43)C2)CC1 [Example 2ad, (R,E)-1-(3-(4-amino-3-(4-phenoxyphenyl)-1H-pyrazolo[3,4-d]pyrimidin-1-yl)pyrrolidin-1-yl)-4-(1-methylpiperidin-4-ylamino)but-2-en-1-one]
CN(C/C=C/C(=O)N1CCC[C@@H](n2nc(-c3ccc(Oc4ccccc4)cc3)c3c(N)ncnc32)C1)C1CC1 [Example 2ae, (R,E)-1-(3-(4-amino-3-(4-phenoxyphenyl)-1H-pyrazolo[3,4-d]pyrimidin-1-yl)piperidin-1-yl)-4-(cyclopropyl(methyl)amino)but-2-en-1-one]
Nc1ncnc2c1c(-c1ccc(Oc3ccccc3)cc1)nn2[C@@H]1CCCN(C(=O)/C=C/CNC2CC2)C1 [Example 2af, (R,E)-1-(3-(4-amino-3-(4-phenoxyphenyl)-1H-pyrazolo[3,4-d]pyrimidin-1-yl)piperidin-1-yl)-4-(cyclopropylamino)but-2-en-1-one]
CN(C/C=C/C(=O)N1CCC[C@@H](n2nc(-c3ccc(Oc4ccccc4)cc3)c3c(N)ncnc32)C1)C1CCCCC1 [Example 2ag, (R,E)-1-(3-(4-amino-3-(4-phenoxyphenyl)-1H-pyrazolo[3,4-d]pyrimidin-1-yl)piperidin-1-yl)-4-(cyclohexyl(methyl)amino)but-2-en-1-one]
Nc1ncnc2c1c(-c1ccc(Oc3ccccc3)cc1)nn2[C@@H]1CCCN(C(=O)/C=C/CNC2CCCCC2)C1 [Example 2ah, (R,E)-1-(3-(4-amino-3-(4-phenoxyphenyl)-1H-pyrazolo[3,4-d]pyrimidin-1-yl)piperidin-1-yl)-4-(cyclohexylamino)but-2-en-1-one]
CN(C/C=C/C(=O)N1CCC[C@@H](n2nc(-c3ccc(Oc4ccccc4)cc3)c3c(N)ncnc32)C1)C1CCCC1 [Example 2ai, (R,E)-1-(3-(4-amino-3-(4-phenoxyphenyl)-1H-pyrazolo[3,4-d]pyrimidin-1-yl)piperidin-1-yl)-4-(cyclopentyl(methyl)amino)but-2-en-1-one]
Nc1ncnc2c1c(-c1ccc(Oc3ccccc3)cc1)nn2[C@@H]1CCCN(C(=O)/C=C/CNC2CCCC2)C1 [Example 2aj, (R,E)-1-(3-(4-amino-3-(4-phenoxyphenyl)-1H-pyrazolo[3,4-d]pyrimidin-1-yl)piperidin-1-yl)-4-(cyclopentylamino)but-2-en-1-one]
CN(C/C=C/C(=O)N1CCC[C@@H](n2nc(-c3ccc(Oc4ccccc4)cc3)c3c(N)ncnc32)C1)C1CCC1 [Example 2ak, (R,E)-1-(3-(4-amino-3-(4-phenoxyphenyl)-1H-pyrazolo[3,4-d]pyrimidin-1-yl)piperidin-1-yl)-4-(cyclobutyl(methyl)amino)but-2-en-1-one]
Nc1ncnc2c1c(-c1ccc(Oc3ccccc3)cc1)nn2[C@@H]1CCCN(C(=O)/C=C/CNC2CCC2)C1 [Example 2am, (R,E)-1-(3-(4-amino-3-(4-phenoxyphenyl)-1H-pyrazolo[3,4-d]pyrimidin-1-yl)piperidin-1-yl)-4-(cyclobutylamino)but-2-en-1-one]
